Results on 33 compounds are retold here after US20220324865A1 (Bayer Aktiengesellschaft, priority 2018, published 2022).

Counter-ions that a name gives are not always drawn.

The assay addresses T1, human EP3 receptor (Homo sapiens, UniProt P43115).
T1 construct: expressed in transfected cells; host or cells: CHO K1 (Chinese Hamster Ovary), stably co-transfected with Galpha16 and mitochondrial clytin
T1 sequence (P43115 1-390): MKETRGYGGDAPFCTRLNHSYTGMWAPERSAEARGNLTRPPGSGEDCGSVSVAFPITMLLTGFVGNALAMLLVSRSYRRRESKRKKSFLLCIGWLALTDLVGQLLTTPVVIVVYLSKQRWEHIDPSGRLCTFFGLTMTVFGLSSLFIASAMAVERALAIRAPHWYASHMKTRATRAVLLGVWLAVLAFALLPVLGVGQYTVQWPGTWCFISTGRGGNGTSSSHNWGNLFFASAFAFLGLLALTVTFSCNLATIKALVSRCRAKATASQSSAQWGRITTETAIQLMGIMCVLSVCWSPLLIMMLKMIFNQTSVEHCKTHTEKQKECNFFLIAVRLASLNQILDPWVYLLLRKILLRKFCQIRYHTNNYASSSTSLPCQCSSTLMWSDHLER
The experiment in a line: Cellular in vitro assay for determining EP3 receptor activity (human EP3 cell line, sulprostone-stimulated calcium luminescence). The class given is cell-based. Conditions: CHO cells expressing human EP3 and mitochondrial Clytin; antagonist mode, sulprostone at EC50; read-out: EP3 CHO mtCLY ANTAG IC50. The protocol: B-1. Cellular In Vitro Assay for Determining EP3 Receptor Activity
The identification of antagonists of the EP3 receptor from humans and rats as well as the quantification of the activity of the compounds of the invention was carried out using recombinant cell lines. These cell lines originally derive from a hamsters ovary epithelial cell (Chinese Hamster Ovary, CHO K1, ATCC: American Type Culture Collection, Manassas, Va. 20108, USA). The test cell lines constitutively express the human or rat EP3 receptors. The naturally Gαi-coupled human and rat EP3 receptors were stably co-transfected with Gα16 into cells that are also stably transfected with a mitochondrial form of the calcium-sensitive photoproteins Clytin (human EP3) or Photina (rat EP3), which, after reconstitution with the cofactor coelenterazine, emit light when there are increases in free calcium concentrations (Nature 1992, 358, 325-327; Gene 1995, 153 (2), 273-274). The resulting EP3 receptor cells react to stimulation of the recombinantly expressed EP3 receptors by the agonist sulprostone with intracellular release of calcium ions, which can be quantified by the resulting photoprotein luminescence. Antagonists inhibit the receptor signaling, leading to reduced calcium release and luminescence. The bioluminescence of the cell lines is detected using a suitable luminometer (Trends Pharmacol. Sci. 1996, 17, 235-237).
Human and Rat EP3 Cell Lines:
On the day before the assay, the cells are plated out in culture medium (OptiMEM, 1% FCS, 2 mM glutamine, 10 mM HEPES, 5 μg/ml coelenterazine) in 384-well microtiter plates and kept in a cell incubator (96% humidity, 5% v/v CO2, 37° C.). On the day of the assay, test compounds in various concentrations are placed for 10 minutes in the wells of the microtiter plate before the agonist sulprostone at EC50 concentration is added. The resulting light signal is measured immediately in a luminometer. All concentrations are measured in quadruples.
For the compound `CCN(CCO)CC(NC(=O)c1cc2c(=O)[nH]c(-c3cnc4cccc(C)c4c3)cn2n1)c1ccccc1` (stereo not drawn) [Example 1-115, N-[2-[Ethyl(2-hydroxyethyl)amino]-1-phenylethyl]-6-(5-methyl-3-quinolyl)-4-oxo-5H-pyrazolo-[1,5-a]pyrazine-2-carboxamide], the half-inhibitory concentration (IC50) was 3.4 nM. The value for `Cc1ccc(-c2cn3nc(C(=O)N[C@@H](C)C4CC4)c(C4CC4)c3c(=O)[nH]2)cc1F` [6-380] was 1.3 nM; that for `COc1ccc(C(CCO)NC(=O)c2cc3c(=O)[nH]c(-c4ccc5c(c4)OCCO5)cn3n2)cc1` (stereo not drawn) [Example 5-3, 6-(2,3-Dihydro-1,4-benzodioxin-6-yl)-N-[3-hydroxy-1-(4-methoxyphenyl)propyl]-4-oxo-5H-pyrazolo[1,5-a]pyrazine-2-carboxamide] was 2.45 nM. As for `CC(NC(=O)c1cc2c(=O)[nH]c(-c3ccc4ccccc4c3)cn2n1)c1ccc(S(N)(=O)=O)cc1` (stereo not drawn) [Example 2-37, 6-(2-Naphthyl)-4-oxo-N-[1-(4-sulfamoylphenyl)ethyl]-4,5-dihydropyrazolo[1,5-a]pyrazine-2-carboxamide], the IC50 amounted to 4.5 nM.

As to `Cc1ccc(-c2cn3nc(C(=O)Nc4cccc(O)c4)c(C(F)(F)F)c3c(=O)[nH]2)cc1F` [6-144], the IC50 amounted to 3.5 nM. The result for `O=C(NCC(O)C(F)(F)F)c1nn2cc(-c3ccc(Cl)c(Cl)c3)[nH]c(=O)c2c1C1CC1` (single isomer, unassigned) [6-417] reads 1.85 nM. The result for `C[C@@H](NC(=O)c1nn2cc(-c3ccc4ccccc4c3)[nH]c(=O)c2c1C(F)(F)F)c1ccc(F)cc1` [Example 1-53, N-[(1R)-1-(4-Fluorophenyl)ethyl]-6-(naphthalen-2-yl)-4-oxo-3-(trifluoromethyl)-4,5-dihydropyrazolo[1,5-a]pyrazine-2-carboxamide] reads 0.82 nM.

For `COC[C@@H](NC(=O)c1nn2cc(-c3ccc4c(c3)ncn4C)[nH]c(=O)c2c1C1CC1)c1ccccc1` [6-600], the IC50 was 2.3 nM. The value for `CC(C)(C)OC(=O)N1CC(NC(=O)c2cc3c(=O)[nH]c(-c4ccc5ccccc5c4)cn3n2)(c2ccc(F)cc2)C1` [Example 1-47, tert.-Butyl 3-(4-fluorophenyl)-3-({[6-(naphthalen-2-yl)-4-oxo-4,5-dihydropyrazolo[1,5-a]pyrazin-2-yl]carbonyl}amino)azetidine-1-carboxylate] was 4.65 nM. The result for `Cc1cccc2ncc(-c3cn4nc(C(=O)NC(CO)c5cc(Cl)cc(Cl)c5)c(C(C)C)c4c(=O)[nH]3)cc12` (stereo not drawn) [Example 4-66, N-[1-(3,5-Dichlorophenyl)-2-hydroxyethyl]-3-isopropyl-6-(5-methyl-3-quinolyl)-4-oxo-5H-pyrazolo[1,5-a]pyrazine-2-carboxamide] reads 3.9 nM; that for `Cc1nc(-c2cn3nc(C(=O)N[C@@H](c4ccc(F)cc4)C(C)(C)O)c(C4CC4)c3c(=O)[nH]2)ccc1Cl` [6-590], 1.2 nM. Take `COc1ccc(C2(NC(=O)c3cc4c(=O)[nH]c(-c5ccc6ccccc6c5)cn4n3)CN(C)C2)cc1` [Example 1-59, N-[3-(4-Methoxyphenyl)-1-methylazetidin-3-yl]-6-(naphthalen-2-yl)-4-oxo-4,5-dihydropyrazolo-[1,5-a]pyrazine-2-carboxamide formic acid salt]: the half-inhibitory concentration (IC50) was determined as 5.9 nM. The value for `COc1ccc([C@@H](C)NC(=O)c2nn3cc(-c4ccc(Cl)c(F)c4)[nH]c(=O)c3c2C2CC2)cn1` [6-87] was 0.93 nM; that for `CC(C)(O)[C@@H](NC(=O)c1nn2cc(-c3ccc(C(F)(F)F)c(Cl)c3)[nH]c(=O)c2c1C1CC1)c1ccc(F)cc1` [6-598] was 2.35 nM; that for `Cc1ccc(-c2cn3nc(C(=O)NCC(C)(N)C(F)(F)F)c(C(F)(F)F)c3c(=O)[nH]2)cc1Cl` (racemic) [6-169] was 4.05 nM.

`N#Cc1c(C(=O)NC2(c3ccc(Cl)cc3)CCC2)nn2cc(-c3ccc4ccccc4c3)[nH]c(=O)c12` [Example 3-62, N-[1-(4-Chlorophenyl)cyclobutyl]-3-cyano-6-(naphthalen-2-yl)-4-oxo-4,5-dihydropyrazolo[1,5-a]pyrazine-2-carboxamide]: the IC50 came to 4 nM.

As for `Cc1ccc(-c2cn3nc(C(=O)NCCC(O)C(F)(F)F)c(C4CC4)c3c(=O)[nH]2)cc1F` (single isomer, unassigned) [6-367], the IC50 amounted to 0.69 nM. Take `O=C(NC1CCCc2ccccc21)c1cc2c(=O)[nH]c(-c3ccc4ccccc4c3)cn2n1` (stereo not drawn) [Example 2-32, 6-(2-Naphthyl)-4-oxo-N-[1,2,3,4-tetrahydronaphthalin-1-yl]-4,5-dihydropyrazolo[1,5-a]pyrazine-2-carboxamide]: the concentration for half-maximal inhibition (IC50) was determined as 2.8 nM.

As for `CC[C@@H](C)NC(=O)c1nn2cc(-c3ccc4ccccc4c3)[nH]c(=O)c2c1C(F)(F)F` [6-511], the IC50 worked out at 0.59 nM. Regarding `COC(=O)N1CC(NC(=O)c2cc3c(=O)[nH]c(-c4ccc(C)c(C)c4)cn3n2)(c2ccc(OC)cc2)C1` [Example 1-66, Methyl 3-({[6-(3,4-dimethylphenyl)-4-oxo-4,5-dihydropyrazolo[1,5-a]pyrazin-2-yl]carbonyl}amino)-3-(4-methoxyphenyl)azetidine-1-carboxylate], the IC50 was determined as 1.65 nM. The result for `Cc1ccc(-c2cn3nc(C(=O)N[C@@H](c4ccc(F)cc4)C(F)(F)CO)c(C4CC4)c3c(=O)[nH]2)cc1F` [6-375] reads 1.07 nM; that for `Cc1cc(-c2cn3nc(C(=O)NC4CC(F)(F)C4)c(C4CC4)c3c(=O)[nH]2)ccc1Cl` [6-297], 1.15 nM. Turning to `C[C@@H](NC(=O)c1nn2cc(-c3ccc4ccccc4c3)[nH]c(=O)c2c1C1CC1)c1ccc(F)cc1` [Example 1-81], the IC50 was 1.59 nM.

As for `Cc1ccc(-c2cn3nc(C(=O)NC(c4ccc(F)cc4)C(F)(F)CO)cc3c(=O)[nH]2)cc1C` (racemic) [6-357], the concentration for half-maximal inhibition (IC50) turned out to be 1.95 nM. Consider `O=C(N[C@H](CCO)c1ccc(F)cc1)c1cc2c(=O)[nH]c(-c3ccc4ccccc4n3)cn2n1` [6-12], for which the IC50 stood at 3.05 nM.

`COc1ccc(C(C)NC(=O)c2nn3cc(-c4cnc5cccc(C)c5c4)[nH]c(=O)c3c2C(C)C)cc1F` (stereo not drawn) [Example 4-71, N-[1-(3-Fluoro-4-methoxyphenyl)ethyl]-3-isopropyl-6-(5-methyl-3-quinolyl)-4-oxo-5H-pyrazolo[1,5-a]pyrazine-2-carboxamide]: the IC50 worked out at 2.4 nM. With `O=C(Nc1cccc2ncccc12)c1cc2c(=O)[nH]c(-c3ccc4ccccc4c3)cn2n1` [Example 2-45, N-(Chinolin-5-yl)-6-(2-naphthyl)-4-oxo-4,5-dihydropyrazolo[1,5-a]pyrazine-2-carboxamide], the IC50 came out at 6.05 nM. On to `COc1ccc(CNC(=O)c2cc3c(=O)[nH]c(-c4ccc5c(c4)OCCO5)cn3n2)cc1OC` [6-76], for which the IC50 worked out at 1.87 nM. The result for `Cc1cc(-c2cn3nc(C(=O)N[C@@H](c4ccc(F)cc4)C(C)(C)O)c(C(C)C)c3c(=O)[nH]2)ccc1Cl` [6-606] reads 2.3 nM. Take `CN(C)C(CNC(=O)c1cc2c(=O)[nH]c(-c3ccc4ccccc4c3)cn2n1)c1cccc(C(F)(F)F)c1` (stereo not drawn) [Example 2-15, N-{2-(Dimethylamino)-2-[3-(trifluormethyl)phenyl]ethyl}-6-(2-naphthyl)-4-oxo-4,5-dihydropyrazolo[1,5-a]pyrazine-2-carboxamide]: the IC50 was determined as 9.55 nM. The value for `Cc1cc(CNC(=O)c2nn3c(C)c(-c4ccc5ccccc5c4)[nH]c(=O)c3c2C)on1` [Example 3-15, 3,7-Dimethyl-N-[(3-methyl-1,2-oxazol-5-yl)methyl]-6-(naphthalen-2-yl)-4-oxo-4,5-dihydropyrazolo[1,5-a]pyrazine-2-carboxamide] was 9.55 nM; that for `Cc1cccc2ncc(-c3cn4nc(C(=O)NC5(c6ccc(F)cc6)CN(C)C5)c(C(C)C)c4c(=O)[nH]3)cc12` [Example 1-25, N-[3-(4-Fluorophenyl)-1-methylazetidin-3-yl]-6-(5-methylquinolin-3-yl)-4-oxo-3-(propan-2-yl)-4,5-dihydropyrazolo[1,5-a]pyrazine-2-carboxamide] was 5.8 nM. The result for `CC(NC(=O)c1cc2c(=O)[nH]c(-c3ccc4ccccc4c3)cn2n1)c1ccc2c(c1)OCCO2` (stereo not drawn) [Example 2-35, N-[1-(2,3-Dihydro-1,4-benzodioxin-6-yl)ethyl]-6-(2-naphthyl)-4-oxo-4,5-dihydropyrazolo[1,5-a]pyrazine-2-carboxamide] reads 5.3 nM.
